Reference: patent US20230240988A1, “FLUID GEL COMPOSITIONS” (The University of Birmingham, priority 2020, published 2023)
Like-named read-outs stand apart in the source and are kept apart here.

Columns and labels:
[1] = Release assay of active agents from PEG-DA fluid gel (trans-well, UV/Vis); assay type: physicochemical; conditions: 3% v/v PEG-DA fluid gel (500 rpm), PBS 37° C., 5 hrs
Protocol: • Active amounts: […] • Standard concentrations of active in PBS were prepared. • Standards were pipetted into a quartz cuvette (1 mm pathlength). • […] spectroscopy was used to measure absorbance between 200 and 700 nm wavelength. • Curves were plotted and used to determine standard curves which were used to determine concentrations. • 0.5 ml PBS was added to the well of a 24 well plate. • The PBS was incubated at 37° C. to equilibrate. 0.1 ml of the fluid gel containing active was placed in a trans-well insert. • The trans-well insert was placed into a well containing PBS. • After a given time period the trans-well insert was removed and placed in a fresh well of PBS. • The release media was then removed and analysed using […] spectroscopy. Concentrations were derived from the standard curves and cumulative release plotted as a function of time.

[2] = tested on: primary ovine chondrocytes; test: PrestoBlue metabolic activity assay; assay type: cell-based
Protocol: All cell work was undertaken on primary ovine chondrocytes. Cells were first expanded, then seeded into wells 24 hrs prior to the application of the fluid gels. Once treatments were added, the cells were cultured for a further 3 days before testing for both metabolic activity and cell viability. In the presence of functionalised particles, suspension wells were used to promote adhesion to the gelled particles, away from the plastic. Metabolic activity assay was undertaken using a PrestoBlue™ assay kit (Invitrogen). In brief, cells were washed with Dulbecco's PBS, and 1 mL of PrestoBlue™ supplemented medium (10%) was added to each well and incubated for 4 hrs. 50 μL of supernatant from each well was transferred to one well of a 96 well plate and fluorescence was measured using a Tecan Spark (Tecan Group Ltd, UK) plate reader with excitation/emission wavelengths set at 550/620 nm.

Molecule	release of active agent from fluid gel [1]	other results
CC(C)Cc1ccc(C(C)C(=O)O)cc1 (stereo not shown) [Ibuprofen, ibuprofen]	able to release	
CC(C)(O)C(=O)c1ccc(OCCO)cc1 [Irgacure-2959, 1-[4-(2-Hydroxyethoxy)-phenyl]-2-hydroxy-2-methyl-1-propane-1-one]		cell metabolic activity, individual formulation components [2]: slight reduction in cell metabolism
CC(C)(O)C(=O)c1ccccc1 [Omnirad-1173, 2-hydroxy-2-methyl-1-phenylpropanone]		cell metabolic activity, individual formulation components ([2]; 3 days culture, PEG-DA not cured, 3.5% & 5%): slight reduction in cell metabolism, although not statistical
Dextran	able to release	
